Measured values taken from publication PMC9738179, “New Nucleic Base-Tethered Trithiolato-Bridged Dinuclear Ruthenium(II)-Arene Compounds: Synthesis and Antiparasitic Activity” (Molecules, 2022).
Where “and” joins values, the source holds several entries; their conditions need not be identical. Equal values may be shown once. Entries after “also recorded” stand apart in the source; their conditions may differ. Read-outs that look alike come from different tables or passages of the source.

What was measured:
[1] = test system: T. gondii β-gal tachyzoites; parameters: method as in PMID 32347622, doi:10.3390/inorganics9080059, PMID 34144354; details: previously reported, ref [93],[96],[111], cited from earlier work
[2] = test system: human foreskin fibroblasts (HFF); details: cited from earlier work
[3] = test system: T. gondii β-gal tachyzoites; details: cited from earlier work
[4] = Stability in DMSO-d6 by 1H NMR (5 min vs 100 days); format: physicochemical; details: 25 °C, 5 min and 100 days after sample preparation, stored at 0-5 °C in the dark
Protocol: For the biological activity evaluation, 1 mM stock solutions of all compounds were prepared in dimethylsulfoxide (DMSO).
The conjugates are well soluble in DMSO, solvent used to prepare standard solutions for biological […]
To assess their stability, compounds 4, 24, 28, 33 and 39 were dissolved in DMSO-d6, and two 1H NMR spectra were recorded at 25°C 5 min and at least 100 days after sample preparation (Figures S1 and S2).
Between the two experiments, the samples were stored at 0°C. For all compounds, there are no significant changes between the spectrum recorded after 5 min and the spectrum recorded after at least […]
further biological tests.
Figure S1. […]

[5] = test system: T. gondii β-gal tachyzoites; assay: Dose-response study (IC50) against T. gondii β-gal tachyzoites; format: cell-based, Toxoplasma gondii; details: 8 serial concentrations 0.007-1 µM, 72 h
Protocol: (§1) The screening cascade for the compounds was described in former studies. All compounds were prepared as 1 mM stock solutions from powder, in dimethyl sulfoxide (DMSO, Sigma, St. Louis, MO, USA). For in vitro activity and cytotoxicity assays, HFF were seeded at 5 × 10^3/well and allowed to grow to confluence in phenol-red free culture medium at 37 °C and 5% CO2. T. gondii tachyzoites were released from host cells, and HFF monolayers were infected with freshly isolated parasites (1 × 10^3/well), and compounds were added concomitantly with infection.
For the dose-response study (IC50 values), measurements for T. gondii β-gal were performed. The selected compounds were added concomitantly with infection in 8 serial concentrations 0.007, 0.01, 0.03, 0.06, 0.12, 0.25, 0.5, and 1 μM.
(§2) To measure the activity of the tested compound on T. gondii β-gal parasites, after a period of 72 h of culture at 37 °C/5% CO2, the culture medium was aspirated, and cells were permeabilized by adding 90 μL PBS (phosphate buffered saline) with 0.05% Triton X-100. Next, 10 μL of 5 mM chlorophenolred-β-D-galactopyranoside (CPRG; Roche Diagnostics, Rotkreuz, Switzerland, substrate for the β-galactosidase) in PBS were added. Release of chlorophenol red was measured at 570 nm using an EnSpire® multimode plate reader (PerkinElmer, Inc., Waltham, MA, USA). A 100% proliferation of T. gondii β-gal was assigned to control parasites treated only with DMSO. For the primary screening at 0.1 and 1 μM, the activity was measured as the release of chlorophenol red over time and was calculated as percentage from the respective DMSO treated control, which represented 100% of T. gondii β-gal growth.
For the IC50 assays, the activity measured as the release of chlorophenol red over time was proportional to the number of live parasites down to 50 per well as determined in pilot assays. IC50 values were calculated after the logit-log-transformation of relative growth and subsequent regression analysis. All calculations were performed using the corresponding software tool contained in the Excel software package (Microsoft, Redmond, WA, USA).

[6] = test system: T. brucei bloodstream forms; parameters: method as in PMID 34639127; details: ref [126]; cited from earlier work
[7] = test system: T. gondii β-gal tachyzoites; assay: Primary screening: T. gondii β-gal proliferation in HFF monolayers at 0.1 and 1 µM (CPRG readout); format: cell-based, Toxoplasma gondii; details: tachyzoites cultured in HFF, 72 h, relative to DMSO control
Protocol: as §1
In the primary screening, HFF monolayers infected with T. gondii β-gal were treated with 0.1 and 1 µM of each compound, or the corresponding concentration of DMSO (0.01 or 0.1%, respectively) as controls and were incubated for 72 h at 37 °C/5% CO2 as previously described.
as §2

[8] = test system: human foreskin fibroblasts (HFF); assay: Cytotoxicity in non-infected HFF by alamarBlue assay; format: cell-based
Protocol: as §1
(§3) Cytotoxicity assays using uninfected confluent HFF host cells were performed by the alamarBlue assay as previously reported. Confluent HFF monolayers in 96 well-plates were exposed to 0.1, 1, and 2.5 μM of each compound. Non-treated HFF as well as DMSO controls (0.01%, 0.1%, and 0.25%) were included. After 72 h of incubation at 37 °C/5% CO2, the medium was removed, and the plates were washed once with PBS. Resazurin suspended in PBS to a final concentration of 0.01 g/L was added to each well (200 μL/well). Fluorescence was measured at excitation wavelength 530 nm and emission wavelength […] using an EnSpire® multimode plate reader (PerkinElmer, Inc, Waltham, MA, USA). The cytotoxicity values were calculated as percentage of the respective DMSO control, which represented 100% of HFF viability.

[9] = as above; format: cell-based, human; details: human, non-infected HFF, 72 h, relative to DMSO control, triplicate
Protocol: as §1, §3

[10] = 0.1 µM, non-infected HFF, previously reported, ref [93],[96],[111]
[11] = 1 µM, non-infected HFF, previously reported, ref [93],[96],[111]
[12] = 0.1 µM, non-infected HFF, 72 h, relative to DMSO control, triplicate
[13] = 2.5 µM, control 0.25% DMSO = 100%, six replicates
[14] = 1 µM, non-infected HFF, 72 h, relative to DMSO control, triplicate

Compound | Stability in DMSO-d6 (1H NMR spectra) [4] | T. gondii β-gal Growth (%) ([7]; 0.1 µM) | HFF Viability (%) [8, 12] | T. gondii β-gal Growth (%) ([7]; 1 µM) | viability at 72 h, 0.1 µM [9] | viability at 72 h, 1 µM [9] | also measured
CC(C)(C)c1ccc(C[S+]2[Ru-]3[S+](Cc4ccc(C(C)(C)C)cc4)[Ru-]2[S+]3c2ccc(CC(=O)O)cc2)cc1.Cc1ccc(C(C)C)cc1.Cc1ccc(C(C)C)cc1.[Cl-] (centres unmarked) [Compound 3] |  |  |  |  |  |  | T. gondii β-gal Growth (%) ([1]; 0.1 µM): 114 ± 2%; T. gondii β-gal Growth (%) ([1]; 1 µM): 110 ± 2%; HFF Viability (%) [2, 10]: 91 ± 4%; HFF Viability (%) [2, 11]: 73 ± 1%; HFF viability at 2.5 µM ([2]; 2.5 µM, intermediates previously reported, not in Table 2, ref [93],[111]): did not affect HFF viability
CC(C)(C)c1ccc(C[S+]2[Ru-]3[S+](Cc4ccc(C(C)(C)C)cc4)[Ru-]2[S+]3c2ccccc2CO)cc1.Cc1ccc(C(C)C)cc1.Cc1ccc(C(C)C)cc1.[Cl-] (centres unmarked) [Compound 4] | very good stability; also recorded: no modifications |  |  |  |  |  | T. gondii β-gal Growth (%) ([1]; 0.1 µM): 2 ± 0%; T. gondii β-gal Growth (%) ([1]; 1 µM): 1 ± 0%; IC50 ([3]; compound reported earlier, ref [96]): 0.038 µM; HFF Viability (%) [2, 10]: 80 ± 1%; HFF Viability (%) [2, 11]: 69 ± 6%; HFF Viability (%) ([2]; 2.5 µM, compound reported earlier, ref [96]): 4%
C#CCNC(=O)Cc1ccc([S+]2[Ru-]3[S+](Cc4ccc(C(C)(C)C)cc4)[Ru-]2[S+]3Cc2ccc(C(C)(C)C)cc2)cc1.Cc1ccc(C(C)C)cc1.Cc1ccc(C(C)C)cc1.[Cl-] (centres unmarked) [Compound 8] |  |  |  |  |  |  | T. gondii β-gal Growth (%) ([1]; 0.1 µM): 52 ± 13%; T. gondii β-gal Growth (%) ([1]; 1 µM): 3 ± 1%
CC(C)(C)c1ccc(C[S+]2[Ru-]3[S+](Cc4ccc(C(C)(C)C)cc4)[Ru-]2[S+]3c2ccc(CC(=O)OCCn3cnc4c(N)ncnc43)cc2)cc1.Cc1ccc(C(C)C)cc1.Cc1ccc(C(C)C)cc1.[Cl-] (centres unmarked) [Compound 14] |  | 12 ± 1% | 95 ± 11% |  |  |  | IC50 [5]: 0.059 µM; Activity against T. brucei bloodstream forms [6]: highly active; HFF Viability (%) [8, 13]: low toxicity and medium toxicity and 76%
C#CCn1ccc(=O)[nH]c1=O.C#CCn1ccc(=O)[nH]c1=O [Compound 15] |  | 109 ± 5% |  | 83 ± 0% | 107 ± 2% | 96 ± 2% | 
C#CCn1cc(C)c(=O)[nH]c1=O.C#CCn1cc(C)c(=O)[nH]c1=O [Compound 16] |  | 96 ± 8% |  | 95 ± 6% | 104 ± 2% | 103 ± 3% | 
C#CCn1ccc(N)nc1=O.C#CCn1ccc(N)nc1=O [Compound 17] |  | 111 ± 5% |  | 90 ± 7% | 96 ± 1% | 93 ± 1% | 
C#CCn1cnc2c(N)ncnc21.C#CCn1cnc2c(N)ncnc21 [Compound 18] |  | 117 ± 4% |  | 91 ± 6% | 96 ± 2% | 89 ± 3% | 
Cc1ccc(C(C)C)cc1.Cc1ccc(C(C)C)cc1.Cc1cn(Cc2cn(-c3ccc([S]4[Ru]5[S](Cc6ccc(C(C)(C)C)cc6)[Ru+]4[S]5Cc4ccc(C(C)(C)C)cc4)cc3)nn2)c(=O)[nH]c1=O.[Cl-] [Compound 24] | very good stability; also recorded: no modifications | 56 ± 15% | 98 ± 10% |  |  |  | IC50 [5]: 0.357 µM; HFF Viability (%) [8, 14]: 96 ± 4%; HFF Viability (%) [8, 13]: 85%
[N-]=[N+]=NCc1cc(=O)[nH]c(=O)[nH]1 [Compound 27, 6-(azidomethyl)uracil] |  | 101 ± 5% |  | 99 ± 11% | 98 ± 5% | 102 ± 3% | 
NC(=O)CCCc1cn(Cc2cc(=O)[nH]c(=O)[nH]2)nn1 [Compound 28] | very good stability; also recorded: no modifications |  | 101 ± 1% |  |  |  | 
[N-]=[N+]=NCCn1cnc2c(N)ncnc21 [Compound 32] |  | 103 ± 8% |  | 94 ± 2% | 104 ± 2% | 103 ± 3% | 
CNc1cn(CCn2cnc3c(N)ncnc32)nn1 [Compound 33] | very good stability; also recorded: no modifications | 94 ± 11% | 84 ± 6% | 83 ± 11% |  |  | HFF Viability (%) [8, 14]: 71 ± 3%
CC(C)(C)c1ccc(C[S]2[Ru]3[S](Cc4ccc(C(C)(C)C)cc4)[Ru+]2[S]3c2ccc(-n3cc(-c4ccccn4)nn3)cc2)cc1.Cc1ccc(C(C)C)cc1.Cc1ccc(C(C)C)cc1.[Cl-] [Compound 39] | very good stability; also recorded: no modifications | 14 ± 1% | 94 ± 2% | 0 ± 0% |  |  | IC50 [5]: 0.075 µM; HFF Viability (%) [8, 14]: 90 ± 1%; HFF Viability (%) [8, 13]: highly toxic and 1%
CCc1nc(N)nc(N)c1-c1ccc(Cl)cc1 [Pyrimethamine, reference compound] |  |  |  |  |  |  | IC50 ([3]; reference compound, ref [93]): 0.326 µM; HFF Viability (%) ([2]; 2.5 µM, reference compound, ref [93]): 99%
